Assay results published in patent US20040171566A1, “Antisense modulation of p38 mitogen activated protein kinase expression” (priority 1999, published 2004).
e = 2'-O-(2-methoxyethyl) (MOE); d = 2'-deoxy (DNA)

Tests used:
mouse p38α mRNA = test: Mouse p38α mRNA levels in bEND.3 cells, quantitative real-time PCR; format: cell-based; set-up: % Inhib. mouse p38α: concentration or dose not given beside the values; conditions: bEND.3 cells, mRNA by quantitative real-time PCR, average of two experiments
From the text: (§1) Quantitation of p38α mRNA levels was accomplished by real-time quantitative PCR using the ABI PRISM™ 7600, 7700, or 7900 Sequence Detection System (PE-Applied Biosystems, Foster City, Calif.) according to manufacturer's instructions. This is a closed-tube, non-gel-based, fluorescence detection system which allows high-throughput quantitation of polymerase chain reaction (PCR) products in real-time. As opposed to standard PCR in which amplification products are quantitated after the PCR is completed, products in real-time quantitative PCR are quantitated as they accumulate. This is accomplished by including in the PCR reaction an oligonucleotide probe that anneals specifically between the forward and reverse PCR primers, and contains two fluorescent dyes. A reporter dye (e.g., FAM or JOE, obtained from either PE-Applied Biosystems, Foster City, Calif., Operon Technologies Inc., Alameda, Calif. or Integrated DNA Technologies Inc., Coralville, Iowa) is attached to the 5′ end of the probe and a quencher dye (e.g., TAMRA, obtained from either PE-Applied Biosystems, Foster City, Calif., Operon Technologies Inc., Alameda, Calif. or Integrated DNA Technologies Inc., Coralville, Iowa) is attached to the 3′ end of the probe. When the probe and dyes are intact, reporter dye emission is quenched by the proximity of the 3′ quencher dye. During amplification, annealing of the probe to the target sequence creates a substrate that can be cleaved by the 5′-exonuclease activity of Taq polymerase. […] With each cycle, additional reporter dye molecules are cleaved from their respective probes, and the fluorescence intensity is monitored at regular intervals by laser optics built into the ABI PRISM™ Sequence Detection System. In each assay, a series of parallel reactions containing serial dilutions of mRNA from untreated control samples generates a standard curve that is used to quantitate the percent inhibition after antisense oligonucleotide treatment of test samples.
(§2) Prior to quantitative PCR analysis, primer-probe sets specific to the target gene being measured are evaluated for their ability to be “multiplexed” with a GAPDH amplification reaction. In multiplexing, both the target gene and the internal standard gene GAPDH are amplified concurrently in a single sample. In this analysis, mRNA isolated from untreated cells is serially diluted. Each dilution is amplified in the presence of primer-probe sets specific for GAPDH only, target gene only (“single-plexing”), or both (multiplexing). Following PCR amplification, standard curves of GAPDH and target mRNA signal as a function of dilution are generated from both the single-plexed and multiplexed samples. If both the slope and correlation coefficient of the GAPDH and target signals generated from the multiplexed samples fall within 10% of their corresponding values generated from the single-plexed samples, the primer-probe set specific for that target is deemed multiplexable. Other methods of PCR are also known in the art.
(§3) PCR reagents were obtained from Invitrogen Corporation, (Carlsbad, Calif.). […] The RT reaction was carried out by incubation for 30 minutes at 48° C. Following a 10 minute incubation at 95° C. to activate the PLATINUM® Taq, 40 cycles of a two-step PCR protocol were carried out: 95° C. for 15 seconds (denaturation) followed by 60° C. for 1.5 minutes (annealing/extension).
(§4) Gene target quantities obtained by real time RT-PCR are normalized using either the expression level of GAPDH, a gene whose expression is constant, or by quantifying total RNA using RiboGreen™ (Molecular Probes, Inc. Eugene, Oreg.). GAPDH expression is quantified by real time RT-PCR, by being run simultaneously with the target, multiplexing, or separately. Total RNA is quantified using RiboGreen™ RNA quantification reagent (Molecular Probes, Inc. Eugene, Oreg.). Methods of RNA quantification by RiboGreen™ are taught in Jones, L. J., et al, (Analytical Biochemistry, 1998, 265, 368-374). […]

rat p38α mRNA = test: Rat p38α mRNA levels in NR-8383 cells, quantitative real-time PCR; format: cell-based; conditions: 300 nM oligonucleotide with FuGENE 6, 24 hours, mRNA by quantitative real-time PCR, average of two experiments
From the text: as §1, §2, §3, §4

Substance | % Inhib. mouse p38α (mouse p38α mRNA) | % Inhib. rat p38α (rat p38α mRNA)
101755 (antisense CATCATCAGGGTCGTGGTAC; sugars from the 5' end e5 d10 e5, all phosphorothioate, methylation of C not given here) [compound 101755] | 84% | 74%
306022 (antisense GGCCAGAGACTGAATGTAGT; sugars from the 5' end e5 d10 e5, all phosphorothioate, methylation of C not given here) [compound 306022] | 78% | 53%
320103 (antisense AGCTCCTGCCGGTAGAACGT; sugars from the 5' end e5 d10 e5, all phosphorothioate, methylation of C not given here) [compound 320103] | 81% | 55%
320104 (antisense TCAAAAGCAGCACACACCGA; sugars from the 5' end e5 d10 e5, all phosphorothioate, methylation of C not given here) [compound 320104] | 82% | 42%
320105 (antisense CCCGTCTTTGTATCAAAAGC; sugars from the 5' end e5 d10 e5, all phosphorothioate, methylation of C not given here) [compound 320105] | 89% | 59%
320106 (antisense AACGGTCTCGACAGCTTCTT; sugars from the 5' end e5 d10 e5, all phosphorothioate, methylation of C not given here) [compound 320106] | 91% | 67%
320107 (antisense TAGGTCCTTTTGGCGTGAAT; sugars from the 5' end e5 d10 e5, all phosphorothioate, methylation of C not given here) [compound 320107] | 84% | 60%
320108 (antisense AGATGGGTCACCAGGTACAC; sugars from the 5' end e5 d10 e5, all phosphorothioate, methylation of C not given here) [compound 320108] | 61% | 57%
320109 (antisense GCCCCCATGAGATGGGTCAC; sugars from the 5' end e5 d10 e5, all phosphorothioate, methylation of C not given here) [compound 320109] | 69% | 34%
320110 (antisense TCATCAGTGTGCCGAGCCAG; sugars from the 5' end e5 d10 e5, all phosphorothioate, methylation of C not given here) [compound 320110] | 87% | 54%
320111 (antisense GTCAACAGCTCAGCCATGAT; sugars from the 5' end e5 d10 e5, all phosphorothioate, methylation of C not given here) [compound 320111] | 86% | 55%
320112 (antisense CGTTCTTCCGGTCAACAGCT; sugars from the 5' end e5 d10 e5, all phosphorothioate, methylation of C not given here) [compound 320112] | 93% | 58%
320113 (antisense ATCAATATGGTCTGTACCAG; sugars from the 5' end e5 d10 e5, all phosphorothioate, methylation of C not given here) [compound 320113] | 35% | 9%
